Results on 8 molecules are retold here after patent publication US20250108123A1, “COMPOUND-LINKER […] COMPOUNDS USEFUL AS STING AGONISTS AND USES THEREOF” (priority 2021, published 2025).

Structures are written as SMILES. Where two headings read alike, the source gives them in different places. Where only a bound is given, the exact number is not on record here.

The target in this experiment is human STING WT (Homo sapiens (Human), UniProt Q86WV6). Nature of the experiment: biochemical. In kind it is binding. The protocol: Cisbio Bioassays' human STING WI binding assay (#64BDSTGPEG & 64BDSTGPEH, Cisbio) is for quantitative measurement of human STING WI ligand using HTRF® technology.
Chain of human STING WT (Q86WV6 whole entry): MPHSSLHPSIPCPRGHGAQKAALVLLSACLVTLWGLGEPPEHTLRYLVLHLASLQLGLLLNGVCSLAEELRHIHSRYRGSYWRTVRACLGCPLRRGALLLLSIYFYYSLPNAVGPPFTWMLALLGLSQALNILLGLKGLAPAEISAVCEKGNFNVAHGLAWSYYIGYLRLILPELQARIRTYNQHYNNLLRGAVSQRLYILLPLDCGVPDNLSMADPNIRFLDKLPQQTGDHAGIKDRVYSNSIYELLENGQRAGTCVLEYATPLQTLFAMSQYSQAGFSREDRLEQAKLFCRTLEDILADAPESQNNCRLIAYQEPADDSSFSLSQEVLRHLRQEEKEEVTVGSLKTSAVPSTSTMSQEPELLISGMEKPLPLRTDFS
Negative control: Dispense 5 μL of diluent into each negative control well. Standard: Dispense 5 μL of each Human STING WI Standard 2′3′-cGAMP (Std 0-Std 7) into each standard well. Compound: Dispense 5 μL of compound into each compound well.
Negative control: Add 5 μL of detection buffer to all wells. Other wells: Add 5 μL of human STING WT protein 6His-tagged protein to all wells.
Add 10 μL of premixed STING WT ligand d2 reagent and 6His Tb antibody working solution to all wells.
Seal the plate and incubate 3 hours at RT or at Over Night if necessary.
Remove the plate sealer and read on an HTRF® compatible reader (PerkinElmer, USA). Results were analyzed with a two-wavelength signal ratio: intensity (665 nm)/intensity (620 nm).
Cisbio Bioassays' human STING WT binding assay (#64BDSTGPEG & 64BDSTGPEH, Cisbio) is for quantitative measurement of human STING WT ligand using HTRF® technology.
Negative control: Dispense 5 μL of diluent into each negative control well. Standard: Dispense 5 μL of each Human STING WT Standard 2′3′-cGAMP (Std 0—Std 7) into each standard well. Compound: Dispense 5 μL of compound into each compound well.
[formula] • Fit the data in GraphPad to obtain IC50 values using equation (2)

[1] abbreviates: HTRF, human STING WT 6His-tagged protein, incubation 3 hours at RT, read-out: hSTING WT binding IC50/nM.
The mark [2] stands for this setting: human STING WT, HTRF binding assay, read-out: hSTING WT binding IC50.

As to `COc1cc2c(cc1CN(C)Cc1cc3c(cc1OC)CN(C(=O)CCC(=O)O)C3)CN(C(=O)CCC(=O)O)C2` [Example I-7, 4,4′-(((methylazanediyl)bis(methylene))bis(6-methoxyisoindoline-5,2-diyl))bis(4-oxobutanoic acid)], the IC50 under setting [1] is over 150 nM.
For the molecule `COc1cc2c(cc1OCCCOc1c(OC)cc3c(c1Cl)CN(C(=O)CCC(=O)O)C3)CN(C(=O)CCC(=O)O)C2` [Example I-8, 4-(5-(3-((2-(3-carboxypropanoyl)-4-chloro-6-methoxyisoindolin-5-yl)oxy)propoxy)-6-methoxyisoindolin-2-yl)-4-oxobutanoic acid], under setting [1], the IC50 was over 150 nM.
The same measure, in the same setting: as for `C=C(COc1c(OC)cc2c(c1Cl)CN(C(=O)CCC(=O)O)C2)COc1c(OC)cc2c(c1Cl)CN(C(=O)CCC(=O)O)C2` [Example I-11, 4,4′-(((2-methylenepropane-1,3-diyl)bis(oxy))bis(4-chloro-6-methoxyisoindoline-5,2-diyl))bis(4-oxobutanoic acid)], the figure is over 150 nM; as for `COc1cc2c(c(Cl)c1OCCCOc1c(OC)cc3c(c1Cl)CN(C(=O)CCC(=O)O)C3)CN(C(=O)CCC(=O)O)C2` [Example I-12, 4,4′-((propane-1,3-diylbis(oxy))bis(4-chloro-6-methoxyisoindoline-5,2-diyl))bis(4-oxobutanoic acid)], over 150 nM.
`COc1cc2c(cc1OCCCOc1cc3cc(C(=O)CCC(=O)O)sc3cc1O)CN(C(=O)CCC(=O)O)C2` [II-7, sodium 4-(5-(3-((2-(3-carboxylatopropanoyl)-6-hydroxybenzo[b]thiophen-5-yl)oxy)propoxy)-6-methoxyisoindolin-2-yl)-4-oxobutanoate] showed an IC50 of 0.36 nM.
Regarding `COc1cc2c(cc1OCCCOc1nc3cc(C(=O)CCC(=O)O)sc3cc1OC)CN(C(=O)CCC(=O)O)C2` [II-8, sodium 4-(5-(3-((2-(3-carboxylatopropanoyl)-6-methoxyisoindolin-5-yl)oxy)propoxy)-6-methoxythieno[3,2-b]pyridin-2-yl)-4-oxobutanoate], under setting [2], the IC50 came to 1.04 nM.
Molecule `COc1cc2c(cc1OCCCOc1cc3cc(C(=O)CCC(=O)O)sc3cc1Br)CN(C(=O)CCC(=O)O)C2` [II-9, 4-(5-(3-((6-bromo-2-(3-carboxypropanoyl)benzo[b]thiophen-5-yl)oxy)propoxy)-6-methoxyisoindolin-2-yl)-4-oxobutanoic acid] yielded an IC50 of 0.65 nM.
For the molecule `C=C(COc1c(OC)cc2c(c1Cl)CN(C(=O)CCC(=O)O)C2)COc1c(OC)cc2sc(C(=O)CCC(=O)O)cc2c1F` [II-16, 4-(5-((2-(((2-(3-carboxypropanoyl)-4-chloro-6-methoxyisoindolin-5-yl)oxy)methyl)allyl)oxy)-4-fluoro-6-methoxybenzo[b]thiophen-2-yl)-4-oxobutanoic acid], the IC50 under setting [2] is over 150 nM.
